Experimental data reported in patent publication US20230211362A1, “A METHOD OF COATING AN OCULAR PROSTHETIC DEVICE AND OTHER PROSTHETICS” (UEA Enterprises Limited, priority 2020, published 2023).
Structures can show the parent of a compound that is named as a salt.

Assays:
[1] = In vitro drug release tests of nanoelectrosprayed contact lenses in PBS 7.4 under sink conditions, HPLC (Example 4); type: physicochemical; settings: zein film on contact lens (BIM1); 2 ml PBS 7.4, 35° C., 125 rpm; FIG. 32 bottom
Method: Glass vials containing 2 ml PBS 7.4 was incubated in a shaking incubator set at 35° C. with 125 rpm for 2 hours before in vitro experiments. All in vitro experiments were performed under sink conditions (i.e., the drug concentration within the in vitro dissolution medium was more than 10 times diluted in comparison to the saturated solubility of the drug in the medium). The nanoelectrosprayed lenses were placed into the vial and an aliquot of 1.5 ml was replaced with fresh PBS at regular intervals up to 24 hours (for KF the intervals were 0.5, 1, 3, 6, and 24 hours; for BIM the intervals were 0.25, 0.5, 0.75, 1, 2, 3, 4, 5, 6, and 24 hours). […] The total amount of ketotifen and bimatoprost sprayed on a contact lens was determined by the sum of the cumulative amount of the drug released during the in vitro study and the amount obtained from extraction.
The high-performance liquid chromatography system (Jasco, Japan) consists of a pump (PU-1580), an autosampler (AS-2055 Plus) and a 4-channel UV detector (UV-1570M). A Waters C18 column (250×4.6 mm i.d.; 5 μm particle size) was used under ambient conditions. The mobile phase of ketotifen fumarate and bimatoprost was prepared according to a method adopted from the literature. The mobile phase for ketotifen comprised methanol and 0.2% triethylamine (v/v) (80:20), running with 1 ml/min flow rate. […]

[2] = cited from earlier work

CCNC(=O)CCC/C=C\C[C@@H]1[C@@H](/C=C/[C@@H](O)CCc2ccccc2)[C@H](O)C[C@@H]1O [bimatoprost]
bimatoprost release after 6 hours [1]: 98%
bimatoprost released in the first 30 minutes [1]: 51%

CN1CCC(=C2c3ccccc3CC(=O)c3sccc32)CC1 [Ketotifen fumarate]
Log P [2]: 3.4
pKa (acid) [2]: 12.3
solubility in aqueous solutions ([2]; slightly soluble in aqueous solutions): 7.87 µg/mL
